Measured values reported in patent US10941158B2, “Pyrazole ACC inhibitors and uses thereof” (Gilead Apollo, LLC, priority 2015, dated 2021).
Values after ≈ are worked out from the molar mass of the structure shown. Like-named read-outs stand apart in the source and are kept apart here.

Legend:
C. krusei ATCC 6258 = experiment: Anti-Fungal (Candida) Activity Assay, broth microtiter MIC; type: cell-based; settings: Pichia kudriavzevii, ATCC6258; 3 replicates, MIC recorded at 48 h; read-out: MIC C. krusei ATCC 6258
Method: (§1) Compounds of the present invention were evaluated in an Anti-Fungal Activity Assay. An exemplary procedure for the assay, which measures the susceptibility of various Candida species to anti-fungal compounds, follows. Compounds to be tested (including fluconazole and amphotericin B) were dissolved in DMSO to obtain a solution having a concentration of 1 mg/mL. […] All species were grown from frozen stock by directly plating on to freshly prepared Sabouraud Dextrose agar (BD, Difco) and incubated overnight in ambient air at 35° C. for 24 h. A direct suspension was prepared in RPMI 1640+MOPS (Lonza, Biowhittaker) by taking individual colonies from the overnight cultures using sterile swabs soaked in sterile saline. The concentration of the suspension was determined using pre-determined standard curves. […] Broth microtiter MIC challenge plates were prepared following CLSI guidelines (M27-A3, Vol. 28 No. 14). The original CLSI guidelines focused on reading Candida MICs after 48 h of incubation. As reading after only 24 h offers a clear advantage of patient care, QC limits are being established for all drugs at 24 h. That being said there are no known interpretive breakpoints for amphotericin B at 24 h and the current fluconazole interpretive breakpoints are based on a 48 h reading. The MIC for the test compounds were recorded at 48 h. All MIC determinations were achieved by visually comparing the growth found in the antibiotic challenged wells to that of the growth control.

[1] = tested on: C. parapsilosis ATCC 22019; experiment: as above; type: cell-based; settings: Lodderomyces parapsilosis, ATCC22019; 3 replicates, MIC recorded at 48 h; read-out: MIC C. parapsilosis ATCC 22019
Method: as §1

C. albicans ATCC 90028 = experiment: as above; type: cell-based; settings: ATCC90028, 3 replicates, MIC recorded at 48 h, read-out: MIC C. albicans ATCC 90028
Method: as §1

human (hACC2) ACC2 = human (hACC2) ACC2 (Homo sapiens, UniProt O00763); experiment: In vitro Acetyl-CoA Carboxylase (ACC) inhibition assay (ADP-Glo), hACC2; type: biochemical
Chain of human (hACC2) ACC2 (O00763 whole entry): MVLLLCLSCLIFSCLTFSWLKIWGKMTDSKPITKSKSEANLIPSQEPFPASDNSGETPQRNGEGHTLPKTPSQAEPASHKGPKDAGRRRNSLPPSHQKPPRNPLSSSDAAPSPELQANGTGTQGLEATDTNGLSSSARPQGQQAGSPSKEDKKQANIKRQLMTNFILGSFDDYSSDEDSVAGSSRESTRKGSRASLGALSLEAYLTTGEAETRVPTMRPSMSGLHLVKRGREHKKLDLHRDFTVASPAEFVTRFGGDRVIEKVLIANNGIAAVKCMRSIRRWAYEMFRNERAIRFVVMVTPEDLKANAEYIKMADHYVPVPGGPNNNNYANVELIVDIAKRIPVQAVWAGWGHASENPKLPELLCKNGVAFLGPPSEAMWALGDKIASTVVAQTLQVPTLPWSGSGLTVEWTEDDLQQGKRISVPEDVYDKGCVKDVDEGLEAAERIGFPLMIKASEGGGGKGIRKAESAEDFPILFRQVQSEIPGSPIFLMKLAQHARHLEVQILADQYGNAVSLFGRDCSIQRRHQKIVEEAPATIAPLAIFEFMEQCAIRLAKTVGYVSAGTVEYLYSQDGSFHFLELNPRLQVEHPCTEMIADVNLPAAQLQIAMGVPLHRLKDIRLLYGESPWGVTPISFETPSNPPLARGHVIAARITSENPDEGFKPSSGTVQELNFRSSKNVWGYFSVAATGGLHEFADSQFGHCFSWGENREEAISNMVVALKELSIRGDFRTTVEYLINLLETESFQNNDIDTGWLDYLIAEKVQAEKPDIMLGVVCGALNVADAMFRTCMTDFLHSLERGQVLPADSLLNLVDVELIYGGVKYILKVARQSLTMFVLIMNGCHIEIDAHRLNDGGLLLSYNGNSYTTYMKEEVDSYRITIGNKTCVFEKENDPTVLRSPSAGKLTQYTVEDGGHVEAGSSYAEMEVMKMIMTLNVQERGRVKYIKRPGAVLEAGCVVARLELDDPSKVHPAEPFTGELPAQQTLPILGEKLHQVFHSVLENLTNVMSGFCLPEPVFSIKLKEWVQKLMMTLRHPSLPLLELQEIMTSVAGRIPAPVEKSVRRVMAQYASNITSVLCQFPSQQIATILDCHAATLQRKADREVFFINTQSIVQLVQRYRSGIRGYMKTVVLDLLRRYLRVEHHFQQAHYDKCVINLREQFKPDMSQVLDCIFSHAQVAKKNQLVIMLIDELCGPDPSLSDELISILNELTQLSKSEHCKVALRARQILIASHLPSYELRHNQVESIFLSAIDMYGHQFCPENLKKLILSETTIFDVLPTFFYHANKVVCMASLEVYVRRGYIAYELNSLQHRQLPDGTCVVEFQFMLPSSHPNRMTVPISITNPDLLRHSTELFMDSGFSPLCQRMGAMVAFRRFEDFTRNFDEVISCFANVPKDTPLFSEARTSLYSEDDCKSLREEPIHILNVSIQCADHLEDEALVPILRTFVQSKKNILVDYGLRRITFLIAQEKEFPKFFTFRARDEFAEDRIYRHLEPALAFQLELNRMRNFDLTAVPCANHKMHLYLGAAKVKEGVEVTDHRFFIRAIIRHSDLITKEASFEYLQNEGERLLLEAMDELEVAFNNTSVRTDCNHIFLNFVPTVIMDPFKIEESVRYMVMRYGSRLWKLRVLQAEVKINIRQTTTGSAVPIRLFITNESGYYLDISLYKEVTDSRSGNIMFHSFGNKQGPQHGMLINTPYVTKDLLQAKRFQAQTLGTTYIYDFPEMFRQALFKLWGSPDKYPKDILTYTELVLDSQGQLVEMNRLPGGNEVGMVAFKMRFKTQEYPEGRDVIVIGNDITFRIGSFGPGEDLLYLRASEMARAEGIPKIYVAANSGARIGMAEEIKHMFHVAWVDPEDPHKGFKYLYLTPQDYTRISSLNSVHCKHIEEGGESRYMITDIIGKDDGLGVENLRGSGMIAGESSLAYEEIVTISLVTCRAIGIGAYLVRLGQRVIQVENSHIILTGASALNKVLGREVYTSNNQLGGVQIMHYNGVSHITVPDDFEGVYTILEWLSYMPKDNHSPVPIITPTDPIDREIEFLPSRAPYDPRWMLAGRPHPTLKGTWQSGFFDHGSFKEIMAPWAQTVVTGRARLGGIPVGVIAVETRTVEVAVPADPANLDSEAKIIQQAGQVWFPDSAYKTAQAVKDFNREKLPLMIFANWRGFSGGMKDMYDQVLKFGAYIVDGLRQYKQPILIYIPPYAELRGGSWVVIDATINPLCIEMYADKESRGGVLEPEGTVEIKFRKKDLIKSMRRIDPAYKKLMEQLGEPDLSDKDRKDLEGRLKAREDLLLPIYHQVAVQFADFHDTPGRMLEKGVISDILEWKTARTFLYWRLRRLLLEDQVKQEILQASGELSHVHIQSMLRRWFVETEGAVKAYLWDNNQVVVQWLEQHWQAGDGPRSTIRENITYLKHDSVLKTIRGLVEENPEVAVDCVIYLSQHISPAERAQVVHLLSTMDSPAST
Method: The detailed procedure is as follows. […] 10 μL ADP glo reagent was added. […] 20 μL kinase detection reagent was added.
“NA” stands for “not assayed.”

Rhizoctonia solani (Rs) = experiment: Growth inhibition assay of fungal pathogens; type: cell-based; settings: 48 h, read-out: Concentration at 90% Inhibition Rs
Method: (§2) Compounds of the present invention were evaluated in a growth inhibition assay to determine the ability to control the growth of fungal pathogens, such as Botrtyis cinerea (Bc), Collectotrichum graminicola (Cg). Diplodia maydis (Dm), Fusarium moniliforme (Fm), Fusarium virguliforme (Fv), Phytophthora capsici (Pc), Rhizoctonia solani (Rs), and Septoria tritici (St). Compounds to be tested were dissolved in DMSO at 2.5 mg/ml to produce compound stock solutions (“stocks”). Stocks were diluted with DMSO by a five-fold dilution in a 96-well stock plate, and two sets of final concentrations of 50, 10, and 2 ppm or 2, 0.4, and 0.08 ppm were obtained in vitro. A set of positive controls was also prepared, with various concentrations of Soraphen (2, 0.4, and 0.08 ppm), Metalaxyl (1.1, 0.22, and 0.04 ppm), and Metconazole (2, 0.4, and 0.08 ppm or 0.2, 0.04, and 0.008 ppm) after the five-fold dilutions. Negative controls on each plate included 2% DMSO, water, and a blank (media+2% DMSO). Fungal spores were isolated from previously sub-cultured plates of Botrtyis cinerea (Bc). Collectotrichum graminicola (Cg). Diplodia maydis (Dm), Fusarium moniliforme (Fm), Fusarium virguliforme (Fv), Phytophthora capsici (Pc), and Septoria tritici (St). The isolated spores were diluted to individual concentrations with a 17% V8 liquid media. For Rhizoctonia solani (Rs) and Pythium irregulare, 1.5 mm mycelial plugs were used in place of spores and ¼ Potato Dextrose Broth (PDB) was used for dilution. The spore concentrations and plug sizes were based on growth curves generated at 48 hours for each pathogen. In a second 96-well plate, the spores or mycelial plugs, media, diluted compound solutions, and controls were combined. Once the compound was added, a true final concentration of compound in each well was measured by an OD600 reading, which adjusted for any compound precipitation that might have occurred in the well. Plate readings were repeated at both 24 and 48 hours. The blank negative control was used as a background subtraction. Additional visual ratings were performed at both 24 and 48 hours for checking on precipitation and confirming efficacy. Visual and OD600 ratings of the compounds at 48 hours were compared to the 2% DMSO negative control, and the percent of pathogen growth inhibition was determined based on those values.

[2] = tested on: Collectotrichum graminicola (Cg); experiment: Growth inhibition assay of fungal pathogens; type: cell-based; settings: 48 h, read-out: Concentration at 90% Inhibition Cg
Method: as §2

Diplodia maydis (Dm) = experiment: Growth inhibition assay of fungal pathogens; type: cell-based; settings: Stenocarpella maydis, 48 h, read-out: Concentration at 90% Inhibition Dm
Method: as §2

[3] = tested on: Phytophthora capsici (Pc); experiment: Growth inhibition assay of fungal pathogens; type: cell-based; settings: 48 hours; for IC90: Phytophthora capsici, read-out: Concentration at 90% Inhibition Pc
Method: as §2

[4] = tested on: Fusarium virguliforme (Fv); experiment: Growth inhibition assay of fungal pathogens; type: cell-based; settings: 48 h, 48 hours, read-out: Concentration at 90% Inhibition Fv
Method: as §2

Botrtyis cinerea (Bc) = experiment: Growth inhibition assay of fungal pathogens; type: cell-based; settings: 48 h, read-out: Concentration at 90% Inhibition Bc
Method: as §2

[5] = tested on: Fusarium moniliforme (Fm); experiment: Growth inhibition assay of fungal pathogens; type: cell-based; settings: Fusarium verticillioides, 48 h, 48 hours, read-out: Concentration at 90% Inhibition Fm
Method: as §2

Septoria tritici (St) = experiment: Growth inhibition assay of fungal pathogens; type: cell-based; settings: 48 hours; for IC90: Zymoseptoria tritici, read-out: Concentration at 90% Inhibition St
Method: as §2

MIC (C. krusei ATCC 6258) [µg/mL]	MIC [1] [µg/mL]	MIC (C. albicans ATCC 90028) [µg/mL]	IC50 (human (hACC2) ACC2) [nM]	SMILES	IC90 (Rhizoctonia solani (Rs); Table 4a) [µg/mL]	IC90 (Rhizoctonia solani (Rs); Table 4b) [µg/mL]	IC90 ([2]; Table 4a) [µg/mL]	IC90 ([2]; Table 4b) [µg/mL]	IC90 (Diplodia maydis (Dm); Table 4a) [µg/mL]	IC90 (Diplodia maydis (Dm); Table 4b) [µg/mL]	IC90 ([3]; Table 4a) [µg/mL]	Concentration at 90% Inhibition Pc ([3]; Table 4b)	IC90 ([4]; Table 4a) [µg/mL]	IC90 ([4]; Table 4b) [µg/mL]	IC90 (Botrtyis cinerea (Bc); Table 4a) [µg/mL]	IC90 (Botrtyis cinerea (Bc); Table 4b) [µg/mL]	IC90 ([5]; Table 4a) [µg/mL]	IC90 ([5]; Table 4b) [µg/mL]	IC90 ([3]; Table 4b) [µg/mL]	IC90 (Septoria tritici (St); Table 4b) [µg/mL]	also measured
2.1 to 4 (≈ 3.42 to 6.52 µM)	> 4.1	> 4.1	10 to 40	COc1ccc(F)cc1[C@H](Cn1c(=O)n(C(C)(C)C(=O)N2CCOCC2)c(=O)c2c(C)c(-n3cccn3)sc21)OC(C)C [Compound I-3, (R)-1-(2-(5-fluoro-2-methoxyphenyl)-2-isopropoxyethyl)-5-methyl-3-(2-methyl-1-morpholino-1-oxopropan-2-yl)-6-(1H-pyrazol-1-yl)thieno[2,3-d]pyrimidine-2,4(1H,3H)-dione]	> 50	> 50	> 50	> 50	> 50	10 (≈ 16.3 µM)	> 50	D (“D” provided a compound concentration of >50 ppm at 90% inhibition of fungal pathogens)	2 (≈ 3.26 µM)	2 (≈ 3.26 µM)	> 50	10 (≈ 16.3 µM)	2 (≈ 3.26 µM)	2 (≈ 3.26 µM)	–	–	Concentration at 90% Inhibition St (Septoria tritici (St); Table 4b): D (“D” provided a compound concentration of >50 ppm at 90% inhibition of fungal pathogens); IC90 (Septoria tritici (St); Table 4a): > 50 µg/mL
2.1 to 4 (≈ 3.59 to 6.83 µM)	> 4.1	> 4.1	10 to 40	COc1ccc(F)cc1[C@H](Cn1c(=O)n(C(C)(C)C(N)=O)c(=O)c2c(C)c(-n3cccn3)sc21)OC1CCOCC1 [Compound I-4, (R)-2-(1-(2-(5-fluoro-2-methoxyphenyl)-2-((tetrahydro-2H-pyran-4-yl)oxy)ethyl)-5-methyl-2,4-dioxo-6-(1H-pyrazol-1-yl)-1,4-dihydrothieno[2,3-d]pyrimidin-3(2H)-yl)-2-methylpropanamide]	> 50	> 50	> 50	10 (≈ 17.1 µM)	> 50	> 50	> 50	D (“D” provided a compound concentration of >50 ppm at 90% inhibition of fungal pathogens)	> 50	> 50	2 (≈ 3.41 µM)	2 (≈ 3.41 µM)	2 (≈ 3.41 µM)	2 (≈ 3.41 µM)	–	–	Concentration at 90% Inhibition St (Septoria tritici (St); Table 4b): D (“D” provided a compound concentration of >50 ppm at 90% inhibition of fungal pathogens); IC90 (Septoria tritici (St); Table 4a): > 50 µg/mL
1.1 to 2 (≈ 1.83 to 3.34 µM)	2.1 to 4 (≈ 3.5 to 6.67 µM)	1.1 to 2 (≈ 1.83 to 3.34 µM)	3 to 10	COc1ccc(F)cc1[C@H](Cn1c(=O)n(C(C)(C)C(N)=O)c(=O)c2c(C)c(-n3cccn3)sc21)O[C@H]1CC[C@@H](O)CC1 [Compound I-5, 2-(1-((R)-2-(5-fluoro-2-methoxyphenyl)-2-(((s,4S)-4-hydroxycyclohexyl)oxy)ethyl)-5-methyl-2,4-dioxo-6-(1H-pyrazol-1-yl)-1,4-dihydro-thieno[2,3-d]pyrimidin-3(2H)-yl)-2-methylpropanamide]	> 50	10 (≈ 16.7 µM)	> 50	> 50	> 50	10 (≈ 16.7 µM)	> 50	D (“D” provided a compound concentration of >50 ppm at 90% inhibition of fungal pathogens)	> 50	10 (≈ 16.7 µM)	2 (≈ 3.34 µM)	2 (≈ 3.34 µM)	2 (≈ 3.34 µM)	2 (≈ 3.34 µM)	–	–	Concentration at 90% Inhibition St (Septoria tritici (St); Table 4b): D (“D” provided a compound concentration of >50 ppm at 90% inhibition of fungal pathogens); IC90 (Septoria tritici (St); Table 4a): > 50 µg/mL
–	–	–	10 to 40	COc1ccc(F)cc1[C@H](Cn1c(=O)n(C(C)(C)C(=O)N2CC(O)C2)c(=O)c2c(C)c(-n3cccn3)sc21)OC1CCOCC1 [Compound I-9, (R)-1-(2-(5-fluoro-2-methoxyphenyl)-2-((tetrahydro-2H-pyran-4-yl)oxy)ethyl)-3-(1-(3-hydroxyazetidin-1-yl)-2-methyl-1-oxopropan-2-yl)-5-methyl-6-(1H-pyrazol-1-yl)thieno[2,3-d]pyrimidine-2,4(1H,3H)-dione]	–	> 50	–	> 50	–	> 50	–	–	–	> 50	–	> 50	–	> 50	> 50	> 50	–
–	–	–	3 to 10	COc1ccccc1[C@H](Cn1c(=O)n(C(C)(C)C(N)=O)c(=O)c2c(C)c(-n3cccn3)sc21)OC1CCOCC1 [Compound I-10, (R)-2-(1-(2-(2-methoxyphenyl)-2-((tetrahydro-2H-pyran-4-yl)oxy)ethyl)-5-methyl-2,4-dioxo-6-(1H-pyrazol-1-yl)-1,4-dihydrothieno[2,3-d]pyrimidin-3(2H)-yl)-2-methylpropanamide]	–	> 50	–	> 50	–	> 50	–	–	–	> 50	–	> 50	–	10 (≈ 17.6 µM)	> 50	> 50	–
–	–	–	10 to 40	COc1ccccc1[C@H](Cn1c(=O)n(C(C)(C)C(N)=O)c(=O)c2c(C)c(-n3cccn3)sc21)OC(C)C [Compound I-16, (R)-2-(1-(2-isopropoxy-2-(2-methoxyphenyl)ethyl)-5-methyl-2,4-dioxo-6-(1H-pyrazol-1-yl)-1,4-dihydrothieno[2,3-d]pyrimidin-3(2H)-yl)-2-methylpropanamide]	–	10 (≈ 19 µM)	–	> 50	–	> 50	–	–	–	> 50	–	> 50	–	> 50	> 50	> 50	–

SMILES	MIC (C. krusei ATCC 6258) [µg/mL]	MIC [1] [µg/mL]	MIC (C. albicans ATCC 90028) [µg/mL]	IC50 (human (hACC2) ACC2) [nM]	IC90 (Rhizoctonia solani (Rs); Table 4a) [µg/mL]	IC90 (Rhizoctonia solani (Rs); Table 4b) [µg/mL]	IC90 ([2]; Table 4a) [µg/mL]	IC90 ([2]; Table 4b) [µg/mL]	IC90 (Diplodia maydis (Dm); Table 4a) [µg/mL]	IC90 (Diplodia maydis (Dm); Table 4b) [µg/mL]	IC90 ([3]; Table 4a) [µg/mL]	Concentration at 90% Inhibition Pc ([3]; Table 4b)	IC90 ([4]; Table 4a) [µg/mL]	IC90 ([4]; Table 4b) [µg/mL]	IC90 (Botrtyis cinerea (Bc); Table 4a) [µg/mL]	IC90 (Botrtyis cinerea (Bc); Table 4b) [µg/mL]	IC90 ([5]; Table 4a) [µg/mL]	IC90 ([5]; Table 4b) [µg/mL]	IC90 ([3]; Table 4b) [µg/mL]	IC90 (Septoria tritici (St); Table 4b) [µg/mL]	also measured
COc1ccccc1[C@H](Cn1c(=O)n(C(C)(C)C(N)=O)c(=O)c2c(C)c(-n3cccn3)sc21)OCC(C)C [Compound I-20, (R)-2-(1-(2-isobutoxy-2-(2-methoxyphenyl)ethyl)-5-methyl-2,4-dioxo-6-(1H-pyrazol-1-yl)-1,4-dihydrothieno[2,3-d]pyrimidin-3(2H)-yl)-2-methylpropanamide]	–	–	–	3 to 10	–	> 50	–	> 50	–	10 (≈ 18.5 µM)	–	–	–	> 50	–	10 (≈ 18.5 µM)	–	10 (≈ 18.5 µM)	> 50	> 50	–
